Assay results taken from patent US20160289702A1, “Biosynthetic Mint” (The University of Manchester, priority 2015, published 2016).

Experiments:
His6-MNMR-His6 = experiment: Steady-state kinetics, ketoreductase activity by NADPH oxidation monitoring; type: biochemical, Mentha piperita; details: NADPH oxidation at 340 nm, 25° C., monoterpenoid 1 mM
Method: (§1) The concentration of nicotinamide coenzymes (Melford) was determined by the extinction coefficient method (ε340=[…]). Steady-state kinetic analyses were performed on a Cary UV-50 Bio UV/Vis scanning spectrophotometer using a quartz cuvette (1 mL; HelIma) with a 1 cm path length. Standard reactions (1 mL) were performed in buffer (50 mM Tris pH 7.0) containing NADPH (50-100 μM for MMR/MNMR and NtDBR, respectively), monoterpenoid (1 mM) and enzyme (30 nM to 2 μM). Reactions were followed by continuously monitoring NADPH oxidation at 340 nm for 1 min at 25° C. The standard monoterpenoid substrates used were pulegone for NtDBR (alkene reduction) and menthone/isomenthone for both MMR and MNMR (ketoreduction). Ketoreductase reactions were performed in an alternative buffer (12.5 mM tri-sodium citrate, 12.5 mM KH2PO4, 12.5 mM K2HPO4and 12.5 mM CHES) containing dithiothreitol (1 mM; DTT). All steady state reactions were performed in at least duplicate.
(§2) The cloning strategies enable the rapid generation and manipulation of multi-gene expression constructs from individual ‘components’, including the presence of repeated sequences of relatively high GC content. Initially, the three ‘mint’ pathway recombinant enzymes (NtDBR, MMR and MNMR) were purified, and preliminary biocatalytic ability of each was assessed to test their functionality when produced in a bacterial system. The three genes encoding these plant enzymes were first codon-optimised for E. coli and cloned into pET21b to generate C-His6-tagged recombinant enzymes. After production and purification, each enzyme was tested for activity under steady state conditions, via indirect NADPH oxidation monitoring.

MMR-His6 = experiment: as above; type: biochemical, Mentha piperita; details: NADPH oxidation at 340 nm, 25° C., monoterpenoid 1 mM
Method: as §1, §2

MMR = details: Davis et al. 2005; cited from earlier work
NtDBR-His6 = molecular target: T1, NtDBR-His6 (Nicotiana tabacum, UniProt Q9SLN8); experiment: Steady-state kinetics, ene-reductase activity by NADPH oxidation monitoring; type: biochemical; details: NADPH oxidation at 340 nm, 25° C., monoterpenoid 1 mM, 50 mM Tris pH 7.0
T1 construct: made in house; host or cells: E. coli BL21(DE3)pLysS
T1 sequence (Q9SLN8 whole entry): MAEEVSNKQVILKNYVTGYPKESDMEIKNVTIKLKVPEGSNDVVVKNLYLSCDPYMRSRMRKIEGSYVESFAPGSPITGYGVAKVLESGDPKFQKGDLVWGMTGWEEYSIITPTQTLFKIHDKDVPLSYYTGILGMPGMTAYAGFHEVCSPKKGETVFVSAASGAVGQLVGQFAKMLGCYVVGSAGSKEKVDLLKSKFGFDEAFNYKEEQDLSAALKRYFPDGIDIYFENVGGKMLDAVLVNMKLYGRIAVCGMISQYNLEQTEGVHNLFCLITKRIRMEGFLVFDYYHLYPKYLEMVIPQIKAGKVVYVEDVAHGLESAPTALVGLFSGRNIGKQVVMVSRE
Method: as §1
The cloning strategies enable the rapid generation and manipulation of multi-gene expression constructs from individual ‘components’, including the presence of repeated sequences of relatively high GC content. Initially, the three ‘mint’ pathway recombinant enzymes (NtDBR, MMR and MNMR) were purified, and preliminary biocatalytic ability of each was assessed to test their functionality when produced in a bacterial system. […]

Ketoreductase activity (His6-MNMR-His6)	Ketoreductase activity (MMR-His6)	SMILES	specificity for menthone over isomenthone (MMR)	ene-reductase activity (NtDBR-His6)
0.20 s⁻¹	2.00 s⁻¹	CC(C)[C@H]1CC[C@@H](C)CC1=O [(2R,5R)-isomenthone]		
0.96 s⁻¹	1.63 s⁻¹	CC(C)[C@@H]1CC[C@@H](C)CC1=O [(2S,5R)-menthone, (2S,5R)-trans-2-Isopropyl-5-methylcyclohexanone]	10 fold	
		CC(C)=C1CC[C@@H](C)CC1=O [(5R)-pulegone]		< 0.1 s⁻¹
